Here are results for 8 molecules from PubChem BioAssay (NCI).

Some test systems named below: NCI-H522 lung; SF-539 CNS; MCF7 breast; HT29 colon; HOP-62 NSCLC; RPMI-8226 leukemia; MALME-3M melanoma; OVCAR-8 ovarian; SK-MEL-5 melanoma; M14 melanoma.
What all share (assay): DTP human tumour cell line panel, 48 h

One may read the GI50 as the concentration at which growth is held to half of that of the control. The TGI is the concentration at which net growth stops.

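These data come from cells grown in 96-well plates and exposed to compound for 48 hours at five concentrations. GI50 is the concentration that inhibits growth by half. At the TGI there is no net growth.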

In the case of `C#C[C@@]1(O)[C@@H](CO)O[C@@H](n2ccc3c(N)ncnc32)[C@@H]1O`, the 50% growth inhibitory concentration (GI50) was 0.37 µM in the assay with NCI-H522 lung; 1.9 µM in the assay on SF-539 CNS; 0.239 µM in the assay with MCF7 breast; 0.97 µM in the assay with HT29 colon; 2.05 µM with HOP-62 NSCLC; 0.777 µM in the assay with RPMI-8226 leukemia. In addition, the GI50 with MALME-3M melanoma is 1.68 µM; with OVCAR-8 ovarian it was 1.03 µM; in the assay on SK-MEL-5 melanoma, 1.56 µM; in the assay on M14 melanoma it was 1.42 µM. Also, the total growth inhibition concentration (TGI) was 3.82 µM with NCI-H522 lung; 4.44 µM with SF-539 CNS; 5.67 µM with MCF7 breast; 7.91 µM in the assay on HOP-62 NSCLC; greater than 100 µM in the assay on RPMI-8226 leukemia; 5.55 µM in the assay on MALME-3M melanoma. Besides, the concentration for total growth inhibition (TGI) amounted to 4.11 µM in the assay with OVCAR-8 ovarian, 2.96 µM with SK-MEL-5 melanoma and 3 µM in the assay with M14 melanoma.
For `OCCNc1ncnc2c1ncn2C1OC(CO)C(O)C1O` (configuration not stated), the TGI in the assay on NCI-H522 lung, in the assay with SF-539 CNS, in the assay with MCF7 breast, in the assay on HT29 colon, in the assay on HOP-62 NSCLC and in the assay with RPMI-8226 leukemia was greater than 100 µM in each case. The TGI in the assay on MALME-3M melanoma, in the assay with OVCAR-8 ovarian, in the assay with SK-MEL-5 melanoma and with M14 melanoma was greater than 100 µM in each case.
As for `Nc1ccn(C2CC(O)C(CO)O2)c(=O)n1` (configuration not stated), the GI50 in the assay with NCI-H522 lung, in the assay on SF-539 CNS, in the assay with MCF7 breast, in the assay on HT29 colon, with HOP-62 NSCLC and in the assay on RPMI-8226 leukemia was greater than 5000 µM in each case. Also, the GI50 in the assay on MALME-3M melanoma, with OVCAR-8 ovarian, in the assay on SK-MEL-5 melanoma and in the assay with M14 melanoma was greater than 5000 µM each time. Moreover, the concentration for total growth inhibition (TGI) with NCI-H522 lung, in the assay with SF-539 CNS, in the assay on MCF7 breast, in the assay on HT29 colon, in the assay on HOP-62 NSCLC and in the assay with RPMI-8226 leukemia was greater than 5000 µM each time. In addition, the TGI in the assay on MALME-3M melanoma, with OVCAR-8 ovarian, with SK-MEL-5 melanoma and in the assay on M14 melanoma was greater than 5000 µM in each case.
With `Cc1cccc(NC(=O)CCl)c1`, the concentration for total growth inhibition (TGI) with NCI-H522 lung is 4.32 µM; in the assay on SF-539 CNS it was greater than 10 µM; with MCF7 breast, greater than 10 µM; in the assay on HT29 colon, greater than 10 µM; with HOP-62 NSCLC it was greater than 10 µM; in the assay on RPMI-8226 leukemia it was greater than 10 µM. The TGI in the assay on MALME-3M melanoma, with OVCAR-8 ovarian, in the assay with SK-MEL-5 melanoma and in the assay on M14 melanoma was greater than 10 µM in each case.
`CCOC(=O)Cn1c(C)c(/C=N/NC(=O)c2cc3c(ccc4ccccc43)o2)c2ccccc21`: the GI50 with NCI-H522 lung was 0.399 µM; in the assay with SF-539 CNS, 0.316 µM; in the assay on MCF7 breast, 0.31 µM; in the assay with HT29 colon it was 0.355 µM; in the assay with HOP-62 NSCLC, 0.554 µM; with RPMI-8226 leukemia it was 0.443 µM. Besides, the GI50 was 0.575 µM in the assay on MALME-3M melanoma, 0.486 µM with OVCAR-8 ovarian, 0.381 µM with SK-MEL-5 melanoma and 0.307 µM with M14 melanoma. Besides, the TGI in the assay with NCI-H522 lung amounted to 6.93 µM; in the assay with SF-539 CNS, 1.28 µM; in the assay on MCF7 breast, 4.85 µM; in the assay with HT29 colon, 1.9 µM; with HOP-62 NSCLC, 4.79 µM; in the assay with RPMI-8226 leukemia, 3.12 µM. Further, the TGI turned out to be 3.22 µM with MALME-3M melanoma, 1.71 µM in the assay with SK-MEL-5 melanoma and 4.35 µM in the assay with M14 melanoma.
Regarding `O=c1oc2ccc(Cl)cc2c(=O)n1-c1cc(C(F)(F)F)cc(C(F)(F)F)c1`, the GI50 with NCI-H522 lung is 0.25 µM; with SF-539 CNS, 0.317 µM; with MCF7 breast, 0.278 µM; in the assay with HT29 colon, 2.12 µM; with HOP-62 NSCLC, 0.352 µM; in the assay on RPMI-8226 leukemia it was 0.188 µM. Besides, the GI50 in the assay with MALME-3M melanoma is 0.222 µM; in the assay on OVCAR-8 ovarian it was 0.323 µM; in the assay with SK-MEL-5 melanoma, 0.138 µM; in the assay on M14 melanoma, 0.3 µM. Besides, the TGI with NCI-H522 lung is 2.57 µM; with SF-539 CNS, 1.74 µM; with MCF7 breast, 13.5 µM; with HT29 colon, 14.6 µM; with HOP-62 NSCLC, 4.36 µM; in the assay with RPMI-8226 leukemia it was 0.712 µM. For the same molecule, the concentration for total growth inhibition (TGI) in the assay on MALME-3M melanoma was 0.696 µM; in the assay on SK-MEL-5 melanoma it was 0.336 µM; in the assay with M14 melanoma, 1.78 µM.
Regarding `COc1ccc(/C=C/C(=O)c2ccc3cc(OC)c(OC)cc3c2)cc1OC`, the GI50 in the assay on NCI-H522 lung is 2.48 µM; with SF-539 CNS, 2.94 µM; in the assay on MCF7 breast it was 2.69 µM; in the assay with HT29 colon, 2.97 µM; with HOP-62 NSCLC, 3.92 µM; in the assay on RPMI-8226 leukemia, 1.9 µM. Also, the GI50 in the assay on MALME-3M melanoma was 13.6 µM; in the assay with OVCAR-8 ovarian it was 2.56 µM; in the assay on SK-MEL-5 melanoma it was 2.3 µM; with M14 melanoma it was 5.47 µM. The TGI with NCI-H522 lung was 7.99 µM; in the assay with SF-539 CNS, 10.4 µM; in the assay on MCF7 breast it was 12.1 µM; in the assay on HT29 colon it was 9.47 µM; in the assay with HOP-62 NSCLC, 22.1 µM; in the assay with RPMI-8226 leukemia it was 5.07 µM. The TGI stood at 30.2 µM with MALME-3M melanoma, 7.89 µM in the assay on OVCAR-8 ovarian, 6.61 µM in the assay on SK-MEL-5 melanoma and 21 µM in the assay with M14 melanoma.
With `COc1cccc(-n2ncc3c(N/N=C/c4ccc(S(C)(=O)=O)cc4)ncnc32)c1`, the GI50 was 6.78 µM in the assay with NCI-H522 lung; 6.22 µM in the assay on SF-539 CNS; 9.87 µM with MCF7 breast; 3.49 µM in the assay with HT29 colon; 5.85 µM in the assay on HOP-62 NSCLC; greater than 22.9 µM in the assay with RPMI-8226 leukemia. Further, the GI50 in the assay with MALME-3M melanoma was 4.21 µM; in the assay with OVCAR-8 ovarian, 6.11 µM; in the assay on SK-MEL-5 melanoma, 3.45 µM; in the assay on M14 melanoma, 5.74 µM. The TGI in the assay on NCI-H522 lung is 20.1 µM; in the assay with SF-539 CNS it was greater than 25 µM; with MCF7 breast it was greater than 25 µM; with HT29 colon, 10.5 µM; in the assay with HOP-62 NSCLC, 11.5 µM; in the assay with RPMI-8226 leukemia it was greater than 25 µM. Further, the TGI is greater than 25 µM in the assay on MALME-3M melanoma, 15.6 µM in the assay with OVCAR-8 ovarian, greater than 15.8 µM with SK-MEL-5 melanoma and greater than 25 µM in the assay on M14 melanoma.
